# Data taken from patent publication US6800639B2, “Pharmaceutical combination for the treatment of cancer” (Shire BioChem Inc., priority 2001, dated 2004).
# How the values were obtained:
# [1] = test system: MiaPaCa Human Pancreatic Tumor Xenograft; assay: Troxacitabine ± Gemcitabine vs. MiaPaCa human pancreatic tumor xenograft; details: for # of Toxic Deaths / Mice with Complete Shrinkage / Mice with Partial Shrinkage: n 10
# Method: (§1) Female nude mice weighing approximately 20 g were implanted s.c. by trocar with fragments of human tumor harvested from s.c. growing tumors in nude mice hosts. When the tumors were approximately 58mg in size (12 days following inoculation), the animals were pair-matched into treatment and control groups. Each group contained 10 mice, each of which was ear-tagged and followed individually throughout the experiment. Initial doses were given on Day 1 following pair matching. […] Gemcitabine (Eli Lilly, Lot# 4MT16M) was administered intraperitoneally at 40 mg/kg and 80 mg/kg on a q3d×4 schedule.
# (§2) Mice were weighed twice weekly, and tumor measurements were taken by calipers twice weekly, starting on Day 1. These tumor measurements were converted to mg tumor weight by a well-known formula, (W^2×L)/2. The experiment was terminated when the control group tumor size reached an average of 1 gram. Upon termination, the mice were weighed, sacrificed and their tumors were excised. The tumors were weighed, and the mean tumor weight per group was calculated.
# (§3) Some drugs may cause tumor shrinkage in these tumor enograft models. With these agents, the final weight of a given tumor is subtracted from its own weight at the start of treatment on Day 1. This difference, divided by the initial tumor weight, is converted to percent shrinkage. The mean percent tumor shrinkage can be calculated from data from the mice in a group that experienced tumor regressions. If the tumor completely disappears in a mouse, it is considered a complete regression or complete tumor shrinkage.
# [2] = test system: Panc-01 Human Pancreatic Tumor Xenograft; assay: Troxacitabine ± Gemcitabine vs. Panc-01 human pancreatic tumor xenograft; details: for Deaths / Mice with Complete Shrinkage / Mice with Partial Shrinkage: n = 10
# Method: as §1, §2, §3
# [3] = test system: patients with refractory/relapsed leukemia; assay: β-L OddC alone in patients with refractory/relapsed leukemia; type: in vivo, human; details: single agent; 16 evaluable AML patients
# Method: A study was conducted to investigate the activity of β-L OddC as a single agent in patients with refractory/relapsed leukemia. The study involved the treatment of patients with refractory or relapsed acute myeloid (AML) or lymphocytic (ALL) leukemia, myelodysplastic syndromes (MDS), or chronic myelogenous leukemia in blastic Phase (CML-BP). A total of 42 patients were treated in the study. As a result, a total of 39 patients were assessable for responses.
# CCRF-CEM cells = assay: MTT assay with CalcuSyn median-effect analysis, Troxacitabine/araC on CCRF-CEM cells; type: cell-based
# Description: The absorbance at 490 nm is directly proportional to the number of living cells in culture at a certain time point. […] Enz. Regulation 22, 1984, pp.27-55. […] Combinations of drugs were then generated around the IC50's of each drug to allow a constant ratio in order to determine if the combination was additive, synergistic or antagonistic. […] A CI below 1 is an indication of synergy, while a CI equal to 1 represents additivity, and a CI above 1 indicates antagonism.
# [4] = Determination of maximum tolerated dose (MTD) in non-tumored mice; type: in vivo; details: i.v. qd×5 schedule
smiles,measurement,setting,value
"Nc1ccn([C@@H]2O[C@H](CO)[C@@H](O)C2(F)F)c(=O)n1 [Gemcitabine, reference compound]",% Tumor Growth Inhibition,"[1]; 40 mg/kg i.p., q3d × 4",37.3%
same,Final Tumor Wt. (Mean ± SEM),"[1]; 40 mg/kg i.p., q3d × 4",733.0 ± 98.7 mg
same,# of Toxic Deaths,"[1]; 40 mg/kg i.p., q3d × 4",0
same,Mice with Complete Shrinkage,"[1]; 40 mg/kg i.p., q3d × 4",0
same,Mice with Partial Shrinkage,"[1]; 40 mg/kg i.p., q3d × 4",0
same,% Tumor Growth Inhibition,"[1]; 80 mg/kg i.p., q3d × 4",53.6%
same,Final Tumor Wt. (Mean ± SEM),"[1]; 80 mg/kg i.p., q3d × 4",553.8 ± 124.3 mg
same,# of Toxic Deaths,"[1]; 80 mg/kg i.p., q3d × 4",1
same,Mice with Complete Shrinkage,"[1]; 80 mg/kg i.p., q3d × 4",0
same,Mice with Partial Shrinkage,"[1]; 80 mg/kg i.p., q3d × 4",0
same,% Tumor Growth Inhibition,"[2]; 40 mg/kg i.p., q3d × 4",49.8%
same,Final Tumor Wt. (Mean ± SEM),"[2]; 40 mg/kg i.p., q3d × 4",457.8 ± 113.9 mg
same,Deaths,"[2]; 40 mg/kg i.p., q3d × 4",0
same,Mice with Complete Shrinkage,"[2]; 40 mg/kg i.p., q3d × 4",0
same,Mice with Partial Shrinkage,"[2]; 40 mg/kg i.p., q3d × 4",0
same,% Tumor Growth Inhibition,"[2]; 80 mg/kg i.p., q3d × 4",74.3%
same,Final Tumor Wt. (Mean ± SEM),"[2]; 80 mg/kg i.p., q3d × 4",262.2 ± 67.7 mg
same,Deaths,"[2]; 80 mg/kg i.p., q3d × 4",0
same,Mice with Complete Shrinkage,"[2]; 80 mg/kg i.p., q3d × 4",0
same,Mice with Partial Shrinkage,"[2]; 80 mg/kg i.p., q3d × 4",0
"Nc1ccn([C@@H]2CO[C@H](CO)O2)c(=O)n1 [Troxacitabine, (−)-β-L-Dioxolane-Cytidine]",complete remissions,[3],2
same,partial remissions,[3],1
same,remission rate (complete + partial),[3],18%
same,% Toxicity,"CCRF-CEM cells; Troxacitabine 20 nM, 72 h continuous exposure",0%
same,% Toxicity,"CCRF-CEM cells; Troxacitabine 31 nM, 2 h exposure, MTT at 72 hr",3 ± 3%
same,% Toxicity,"CCRF-CEM cells; Troxacitabine 62 nM, 2 h exposure, MTT at 72 hr",12 ± 7%
same,% Toxicity,"CCRF-CEM cells; Troxacitabine 100 nM, 72 h continuous exposure",28 ± 5%
same,% Toxicity,"CCRF-CEM cells; Troxacitabine 125 nM, 2 h exposure, MTT at 72 hr",11 ± 2%
same,% Toxicity,"CCRF-CEM cells; Troxacitabine 250 nM, 2 h exposure, MTT at 72 hr",24 ± 3%
same,% Toxicity,"CCRF-CEM cells; Troxacitabine 500 nM, 2 h exposure, MTT at 72 hr",34 ± 6%
same,% Toxicity,"CCRF-CEM cells; Troxacitabine 500 nM, 72 h continuous exposure",65 ± 2%
same,% Toxicity,"CCRF-CEM cells; Troxacitabine 2500 nM, 72 h continuous exposure",90 ± 2%
same,% Toxicity,"CCRF-CEM cells; Troxacitabine 12500 nM, 72 h continuous exposure",98 ± 1%
same,% Tumor Growth Inhibition,"[1]; 10 mg/kg i.v., qd × 5",23.9%
same,Final Tumor Wt. (Mean ± SEM),"[1]; 10 mg/kg i.v., qd × 5",872.7 ± 171.1 mg
same,# of Toxic Deaths,"[1]; 10 mg/kg i.v., qd × 5",3
same,Mice with Complete Shrinkage,"[1]; 10 mg/kg i.v., qd × 5",0
same,Mice with Partial Shrinkage,"[1]; 10 mg/kg i.v., qd × 5",0
same,% Tumor Growth Inhibition,"[1]; 25 mg/kg i.v., qd × 5",29.7%
same,Final Tumor Wt. (Mean ± SEM),"[1]; 25 mg/kg i.v., qd × 5",813.4 ± 57.9 mg
same,# of Toxic Deaths,"[1]; 25 mg/kg i.v., qd × 5",0
same,Mice with Complete Shrinkage,"[1]; 25 mg/kg i.v., qd × 5",0
same,Mice with Partial Shrinkage,"[1]; 25 mg/kg i.v., qd × 5",0
same,Final Tumor Wt. (Mean ± SEM),"[2]; 10 mg/kg i.v., qd × 5",11.1 ± 2.1 mg
same,Mean % Tumor Shrinkage,"[2]; 10 mg/kg i.v., qd × 5",77.5%
same,Deaths,"[2]; 10 mg/kg i.v., qd × 5",0
same,Mice with Complete Shrinkage,"[2]; 10 mg/kg i.v., qd × 5",1
same,Mice with Partial Shrinkage,"[2]; 10 mg/kg i.v., qd × 5",9
same,Final Tumor Wt. (Mean ± SEM),"[2]; 25 mg/kg i.v., qd × 5",12.5 ± 1.9 mg
same,Mean % Tumor Shrinkage,"[2]; 25 mg/kg i.v., qd × 5",72.6%
same,Deaths,"[2]; 25 mg/kg i.v., qd × 5",0
same,Mice with Complete Shrinkage,"[2]; 25 mg/kg i.v., qd × 5",1
same,Mice with Partial Shrinkage,"[2]; 25 mg/kg i.v., qd × 5",9
same,maximum tolerated dose,[4],greater than 25 mg/kg
